The subject of series [1] is Streptococcus uberis ATCC 27958. As to the kind of experiment: Germicidal and Detergent Sanitizer Test (modified AOAC). Format: cell-based. The settings on record: solution pH 6.5, 30 Seconds. As to the method: (§1) Germicidal and Detergent Sanitizer Test. The following challenge organisms were grown in trypticase soy broth for 24 h at 37° C.: Staphylococcus aureus (Gram-positive) ATCC 29740 (Newbould 305), Streptococcus agalactiae (Gram-positive) ATCC 27956 (McDonald 44), Streptococcus dysgalactiae (Gram-positive) ATCC 27957, Streptococcus uberis (Gram-positive) ATCC 27958, Escherichia coli (Gram-negative) ATCC 25922, Pseudomonas aeruginosa (Gram-negative) ATCC 27853, and clinical mastitis isolates of Enterobacter aerogenes (Gram-negative) (216RF) and Klebsiella pneumoniae (Gram-negative) (A37RR) from the Louisiana State University Hill Farm Research Station dairy herd.
(§2) Bacterial cultures. Aliquots of each 24-h bacterial culture were standardized to a turbidity of a 0.5 McFarland standard, which corresponds to approximately 150×10^6 colony-forming units (cfu) per ml. Aliquots containing 0.02 ml of this culture were added to 1.98 ml aliquots of the curcumin-rubusoside solution. […] This solution was mixed thoroughly, and diluted 1:1000 in saline, and 0.1 ml was plated on duplicate Letheen Agar (Becton Dickinson, Cockeysville, Md.) plates for each microorganism tested. Resultant colonies were counted after incubation of the plates at 37° C. for 24 h.
(§3) First Experiment. The test compound was a solubilized curcumin water solution. […] The solution was kept in the dark.
(§4) Second Experiment. For the second experiment, the bacterial cultures were as described above. […] First, 100 mL of a 5% w/v rubusoside water solution was prepared. […] This solution was then autoclaved at 115° C. and 1 atmosphere pressure for 30 min. The autoclaved solution was held in an incubator at 37° C. for 72 hr, and kept in the dark. The solution was adjusted to pH 7.4 by adding appropriate amount of phosphate buffered saline powder and then filtered through a 0.45 μm Nylon filter and analyzed on HPLC.

Series [2] concerns Pseudomonas aeruginosa ATCC 27853. The series is described as above. Format: cell-based. On the procedure: as §1, §2, §3, §4
The subject of series [3] is Enterobacter aerogenes (A216RF). The description is as above. Format: cell-based. The settings on record: solution pH 6.5, 30 Seconds. As to the method: as §1, §2, §3, §4
Series [4] relates to Klebsiella pneumoniae (A37RR). The series is described as above. Format: cell-based. The settings on record: solution pH 6.5, 30 Seconds. On the procedure: as §1, §2, §3, §4
Series [5] concerns Staphylococcus aureus ATCC 29740 (Newbould 305). The description is as above. The format is cell-based. On the procedure: as §1, §2, §3, §4
In series [6] the test system is Streptococcus dysgalactiae ATCC 27957. The series is described as above. Format: cell-based. As to the method:
as §1, §2, §3, §4

The subject of series [7] is Escherichia coli ATCC 25922. The series is described as above. Format: cell-based. As to the method: as §1, §2, §3, §4
For series [8], the system named is Streptococcus agalactiae ATCC 27956 (McDonald 44). The description is as above. Format: cell-based. As to the method: as §1, §2, §3, §4
The conditions of series [9]: in vivo; cited from earlier work.

Regarding `COc1cc(/C=C/C(=O)CC(=O)/C=C/c2ccc(O)c(OC)c2)ccc1O` [Curcumin], the Percent reduction result is on record as “no observed inhibition” in series [1]; 99.99% in series [2] (solution pH 6.5, 10 Minutes); 99.99% in series [2] (solution pH 6.5, 30 Seconds); “no observed inhibition” in series [3]; “no observed inhibition” in series [4]; 26.67% in [5] (solution pH 6.5, 10 Minutes). For the same molecule, the Percent reduction is reported as 39.33% in [5] (solution pH 6.5, 30 Seconds); 47.92% in [6] (solution pH 6.5, 10 Minutes); 43.75% in series [6] (solution pH 6.5, 30 Seconds); 98.54% in [7] (solution pH 6.5, 10 Minutes); “no observed inhibition” in [7] (solution pH 6.5, 30 Seconds); 99.7% in series [8] (solution pH 6.5, 10 Minutes). The Percent reduction in [8] (solution pH 6.5, 30 Seconds) is 91.7%.

Regarding `CCCCN(CCCC)CC(O)c1cc(Cl)cc2c1-c1ccc(Cl)cc1/C2=C/c1ccc(Cl)cc1` (centres unmarked) [Lumefantrine], the Half-life in series [9] was 72 to 140 h.

Source of the values: patent publication US20110033525A1, “Diterpene Glycosides as Natural Solubilizers” (priority 2008, published 2011).
